Measurements from article PMC3399898, “Immobilization of β-Galactosidase onto Functionalized Graphene Nano-sheets Using Response Surface Methodology and Its Analytical Applications” (PLoS ONE, 2012).

Test system: T1, Chick pea β-galactosidase (CpGAL)
T1 construct: native enzyme purified from dry seeds (local market), homogeneous on SDS-PAGE; soluble (free) form
Assay: steady-state kinetics, Lineweaver-Burk plot
Assay type: biochemical, Cicer arietinum
Settings: soluble enzyme; optimum pH 2.8, 60 °C printed; pH of the Km assay not stated; read-out: Soluble / ONPG
From the text: steady-state kinetics, Lineweaver-Burk plot on Chick pea β-galactosidase (CpGAL)

Km: 1730 µM
SMILES: O=[N+]([O-])c1ccccc1O[C@@H]1O[C@H](CO)[C@H](O)[C@H](O)[C@H]1O [ONPG]
